{"source": "patent US20240024479A1", "about": "“NK CELLS OR T CELLS EXPRESSING CHIMERIC HEMATOPOIETIC GROWTH FACTOR RECEPTORS AND METHODS OF USE” (The United States of America, as represented by the …, priority 2020, published 2024)", "key": {"[1]": {"tested_on": "GFP+ MPL+ cells", "assay": "Persistence of transduced human NK cells in immunodeficient mice", "type": "in vivo, NSG mice", "conditions": "for average percentage of GFP+ MPL+ cells amongst the recovered human cells: TPO 50 μg/kg daily, 4 days, about 10% of injected cells", "excerpt": "Both populations were then mixed at a 1:1 ratio immediately before injection intravenously into NSG mice (such that GFP^+ MPL^+ cells and GFP^+ CD34^+ cells each constituted ˜10% of the mixed cells). Each mouse received 2.2×10^7 total human NK cells. […] MPL-transduced NK cells were identified as GFP^+ MPL^+ while CD34-transduced NK cells were gated as GFP^+ CD34^+. The frequency of transduced cells is presented (FIG. 14A) as a percentage of MHC-I^+ human cells isolated from organs or (FIG. 14B) as percent of total live mononuclear cells recovered from each organ. The legend applies to both FIGS. 14A and 14B. Data from 9 mice per group are shown with NK cells derived from 3 human blood donors. Data was normalized to account for unequal transduction or subset mixing before injection using the equation: […]\nPersistence of transduced human NK cells in immunodeficient mice: NK cells from human PBMC were transduced with matched lentiviral vectors encoding GFP/MPL or GFP/CD34 then mixed at a 1:1 ratio and injected intravenously into NSG mice (2.2×10^7 total cells/mouse). […] After euthanasia, blood was drawn by cardiac puncture, bone marrow was harvested by flushing the tibia, and spleen, liver, and lung fragments were processed by grinding over 70 μm nylon mesh. Blood, bone marrow, lung, and spleen samples received 1-2 rounds of 5 minute incubations with ACK lysis buffer (Quality biological). Liver samples were purified by centrifugation over 35% Percoll (Sigma) solution in RPMI. The presence of transduced human cells was quantified in various organs via flow cytometry using antibodies to human MHC class I (W6/32) (BioLegend), c-MPL (1.6.1), CD34 (581) (BD BioSciences), GFP-fluorescence, and Live/Dead Aqua viability dye (Thermo Fisher)."}, "[2]": {"tested_on": "c-MPL transduced NK cells", "assay": "Proliferation of c-MPL-expressing human NK cells with thrombopoietin mimetics", "type": "cell-based", "conditions": "4-5 days culture", "description": "FIGS. 16A-16C show proliferation of human NK cells transduced to express GFP and c-MPL cultured for 4-5 days with the indicated concentrations of thrombopoietin (FIG. 16A), romiplostim (FIG. 16B), or eltrombopag (FIG. 16C). […] Mean and SEM of results from 3 blood donors are shown.\nNK cells from PBMC from three blood donors were stimulated and transduced to express GFP and c-MPL, then were cultured for 4-5 days with thrombopoietin, romiplostim, or eltrombopag."}, "[3]": {"tested_on": "c-MPL+ NK-92 cells", "assay": "In vitro cell expansion of c-MPL+ NK-92 cells", "type": "cell-based, human", "conditions": "day 8", "excerpt": "Lentiviral production and transduction: Lentivirus gene expression vectors encoding EGFP-P2A linker-human EPOR or EGFP-P2A-human c-MPL were cloned according to our design by VectorBuilder (TX, USA). Plasmid DNA for the above and pCMV-dR8.2 dvpr and pCMV-VSV-G packaging plasmids was purified using ZymoPUREII-EndoZero plasmid maxiprep kit (Zymo Research, CA). Lentiviral particles were generated with HEK293T cells and Lipofectamine3000 reagent (Thermo Fisher Scientific, MA) following the manufacturers' instructions. Viral supernatant was harvested at 24 and 48 hours, pooled, and concentrated with lenti-X concentrator (Takara Bio, Japan) or by centrifugation at 18,600 rpm for 2 hours at 4° C. […] After 5 days post-transduction, cells were stained and sorted with fluorescence-activated cell sorting (FACS) using a BD FACSAria II to purify GFP^+EPOR^+ and GFP^+c-MPL^+ NK cell populations.\nIn vitro cell expansion cultures: The NK-92 (5×10^4 cell/ml) and KHYG-1 (1×10^4 cell/ml) cells were cultured in 1 ml of complete medium in 24-well plate. […] Trypan blue negative cells were counted every other day. […] Viable cells were counted and percentage of GFP^+ cells was acquired on indicated days (NK: day 4 and 6, T: day 3 and 6). The fold change of GFP^+ cells was calculated by multiplying the counted cell number times the fraction GFP^+."}, "[4]": {"tested_on": "c-MPL+ NK-92 cells", "assay": "Short-term expansion and apoptosis assay, c-MPL+ NK-92", "type": "cell-based, human", "conditions": "TPO plus LD IL-2 vs LD IL-2 alone; day 3", "description": "In vitro cell expansion cultures: The NK-92 (5×10^4 cell/ml) and KHYG-1 (1×10^4 cell/ml) cells were cultured in 1 ml of complete medium in 24-well plate. […] Trypan blue negative cells were counted every other day. […] For competitive primary NK and T cell expansion assay, all transduced cells (5×10^5/ml for NK and 4×10^5/ml for T cell) containing a mixture of GFP positive (transduced) and GFP negative (untransduced) cells were plated on day 0. Fresh medium with appropriate supplements was replaced every other day for NK cells and only on day 3 for T cell experiment. Viable cells were counted and percentage of GFP^+ cells was acquired on indicated days (NK: day 4 and 6, T: day 3 and 6). The fold change of GFP^+ cells was calculated by multiplying the counted cell number times the fraction GFP^+.\nStaining was performed in phosphate-buffered saline (PBS) with 2% FBS and 2 mM EDTA and analyzed on a BD LSRFortessa machine. If intracellular staining was required, BD cytofix/cytoperm (BD Biosciences) was applied for cell fixation and permeabilization after surface staining. The apoptosis assay was performed using PE annexinV apoptosis detection kit (BD Biosciences). The data were analyzed on FlowJo software."}, "[5]": {"tested_on": "GFP+ MPL+ transduced cells", "assay": "Cell surface phenotype of c-MPL-transduced primary NK cells", "type": "cell-based, human", "description": "Human NK cells were stimulated and transduced with c-MPL/GFP lentiviral vectors. […] After 4 days, cellular function was assessed by mixing at a 1:1 ratio with K562 target cells and assessing (FIG. 13A) NK cell degranulation (by surface anti-CD107a staining) two hours later, or (FIG. 13B) intracellular IFN-γ and TNF-α four hours after addition of K562. Results for gated GFP transduced cells or independent untransduced cultures from the same donors are shown. The cell surface phenotype of the NK cells was also assessed after 4 days of culture with cytokines as indicated (FIG. 13C).\nFlow cytometry, reagents and pathway analysis: Fluorochrome-conjugated monoclonal antibodies were used as follows: BD Biosciences: CD56-PE-Cy7 (NCAM16.2), CD3-PE (UCHT1), c-MPL-PE (1.6.1), STAT5(pY694)-Alexa Fluor647 (47/stat5(pY694)), NKp46-APC (9E2), NKp44-PE (p44-8), FAS-PE (DX2) CD62L-V450 (DREG-56); R&D systems: EPOR-PE (FAB307P); Biolegend: Bc1-2-PE (100), TRAIL-APC (RIK-2), CXCR4-BV421 (12G5), KIR3DL1-BV421 (DX9); Abcam: Bcl-xL-PE (ab208747); Cell signaling technology: P-p44/42 MAPK-Alexa Fluor647 (E10) and p-S6 ribosomal protein-PE (D57.2.2E); Beckman Coulter: NKG2A-PE (Z199), KIR2DL1/S1-PE (EB6B), KIR2DL2/3-PE/Cy5.5 (GL183). Staining was performed in phosphate-buffered saline (PBS) with 2% FBS and 2 mM EDTA and analyzed on a BD LSRFortessa machine. […] The data were analyzed on FlowJo software."}}, "data": [{"substance": "TPO: recombinant human thrombopoietin, ligand of the c-MPL receptor; 50 ng/ml rhTPO (R&D)", "values": [{"measurement": "GFP+ MPL+ cells as percentage of total live cells from each organ, vs GFP+ CD34+ control cells", "setting": "[1]; TPO-treated mice", "result": "significantly more"}, {"measurement": "average percentage of GFP+ MPL+ cells amongst the recovered human cells", "setting": "[1]; blood and spleen", "result": 15, "unit": "%"}, {"measurement": "average percentage of GFP+ MPL+ cells amongst the recovered human cells", "setting": "[1]; liver and lung", "result": 20, "unit": "%"}, {"measurement": "proliferation of c-MPL transduced NK cells", "setting": "[2]", "result": "induce proliferation"}, {"measurement": "fold expansion of c-MPL+ NK-92 cells", "setting": "[3]; TPO alone", "result": 7, "unit": "fold"}, {"measurement": "fold expansion of c-MPL+ NK-92 cells", "setting": "[3]; TPO plus 1 U/ml IL-2", "result": 23.25, "unit": "fold"}, {"measurement": "proportion of dead/apoptotic cells", "setting": "[4]", "result": "significantly lower proportions of dead/apoptotic cells"}, {"measurement": "CD62L expression", "setting": "[5]; TPO added to media containing 25 U/ml IL-2, normalized to each donor", "result": "significantly increased CD62L expression"}, {"measurement": "NK cell phenotype other than CD62L", "setting": "[5]; TPO added to media containing 25 U/ml of IL-2", "result": "no phenotypic differences"}]}]}
